Data from patent publication US9199939B2, “Quinoline amide M1 receptor positive allosteric modulators” (Merck Sharp & Dohme Corp., priority 2009, dated 2015).

Target: T1, acetylcholine muscarinic M1 receptor (Homo sapiens, UniProt P11229)
T1 construct: expressed in transfected cells; host or cells: CHOnfat (CHO cells; also called CHOK1/hM1)
T1 sequence (P11229 1-460): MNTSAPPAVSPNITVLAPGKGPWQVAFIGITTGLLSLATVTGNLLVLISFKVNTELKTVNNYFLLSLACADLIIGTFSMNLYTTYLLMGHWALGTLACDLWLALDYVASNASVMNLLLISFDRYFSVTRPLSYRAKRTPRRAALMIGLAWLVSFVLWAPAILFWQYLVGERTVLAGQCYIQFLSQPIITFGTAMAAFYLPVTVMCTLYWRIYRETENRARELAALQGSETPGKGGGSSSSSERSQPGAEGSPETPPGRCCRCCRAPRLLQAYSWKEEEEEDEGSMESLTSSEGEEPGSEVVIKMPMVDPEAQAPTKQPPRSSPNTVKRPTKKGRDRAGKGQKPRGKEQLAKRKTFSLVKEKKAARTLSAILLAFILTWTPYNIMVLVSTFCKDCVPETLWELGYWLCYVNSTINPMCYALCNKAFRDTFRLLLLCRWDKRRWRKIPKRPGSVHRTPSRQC
Experiment: Muscarinic M1 FLIPR intracellular calcium assay for positive allosteric modulators
Type: cell-based
Conditions: IP = inflection point calculated from FLIPR values; CHOnfat/hM1 cells; 4 min preincubation, then EC20 acetylcholine (3 nM final); read-out: IP Value
Experimental: The assay studies the effect of one or several concentrations of test compounds on basal or acetylcholine-stimulated Ca^2+ levels using FLIPR.
Compounds are prepared and subjected to a preincubation period of 4 min. Thereafter, a single EC20 concentration of acetylcholine is added to each well (3 nM final). The intracellular Ca^2+ level of each sample is measured and compared to an acetylcholine control to determine any modulatory activity.
Cells: CHOnfat/hM1, hM2, hM3 or hM4 cells are plated 24 hr before the assay at a density of 18,000 cells/well (100 μL) in a 384 well plate. CHOnfat/hM1 and CHOnfat/hM3 Growth Medium: 90% DMEM (Hi Glucose); 10% HI FBS; 2 mM L-glutamine; 0.1 mM NEAA; Pen-Strep; and 1 mg/ml Geneticin, are added. For M2Gqi5CHOnfat and M4Gqi5CHOnfat cells, an additional 600 ug/ml hygromycin is added.
Equipment: 384 well plate, 120 μL addition plate; 96-well Whatman 2 ml Uniplate Incubator, 37° C., 5% CO2; Skatron EMBLA-384 Plate Washer; Multimek Pipetting System; Genesis Freedom 200 System; Mosquito System; Temo Nanolitre Pipetting System; and FLIPR^384 Fluorometric Imaging Plate Reader System are used.
Buffers. Assay Buffer: Hanks Balanced Salt Solution, with 20 mM Hepes, 2.5 mM Probenecid (Sigma P-8761) first dissolved in 1 N NaOH, 1% Bovine Serum Albumin (Sigma A-9647). Dye Loading Buffer: Assay Buffer plus 1% Fetal Bovine Serum and Fluo-4AM/Pluronic Acid Mixture. 2 mM Fluo-4AM ester stock in DMSO (Molecular Probes F-14202) Concentration of 2 μM in buffer for a final concentration of 1 μM in Assay. 20% Pluronic Acid Solution stock, with concentration of 0.04% in Buffer, 0.02% in Assay.
65 μL of 2 mM Fluo-4AM are mixed with 130 μL of 20% Pluronic Acid. The resulting solution and 650 μL FBS is added to the assay buffer for a total volume of 65 mL. Positive Controls: 4-Br-A23187: 10 mM in DMSO; final concentration 10 μM. Acetylcholine: 10 mM in water, working stock at both 20 μM and 30 μM in assay buffer, final concentration of 10 μM. This is used to check the maximum stimulation of the CHOK1/hM1 cells. 20 μM (2×) acetylcholine is added in the preincubation part of the assay, and the 30 μM (3×) stock is added in the second part. (EC20)Acetylcholine: 10 mM in water, working stock of 9 nM (3×), and final concentration in assay is 3 nM. This is used after the preincubation with test compounds. Addition of the EC20 Acetylcholine to each well with a test compound will ascertain any modulator activity. 24 wells contain 3 nM Acetylcholine alone as a control.
Determining Activity of Putative Compounds:
Screening Plate Compounds are titrated in 96-well plates (columns 2-11), 100% DMSO, started at a concentration of 15 mM (150× stock concentration), and 3-fold serial dilutions using Genesis Freedom200 System. Four 96-well plates are combined into a 384-well plate using Mosquito Nanolitre Pipetting System by transferring 1 μl of serial diluted compounds to each well, and 1 mM acetylcholine (100× stock concentration) were added as a control. Using Temo, 49 μl assay buffer is added to each well of the 384-well plate right before assay.
In a 96-well Whatman 2 ml Uniplate, 9 nM Acetylcholine (3×) is pipetted into wells corresponding to the screening compounds, and into control wells. The 30 μM acetylcholine control (3×) is added into control wells, and the 3× agonist plate is transferred into a 384 well plate.
Cells are washed three times with 100 μL of buffer, leaving 30 μL of buffer in each well. Using Multimek, 30 μL of Dye Loading Buffer is added into each well and incubated at 37° C., 5% CO2 for up to one hr.
After 60 min, the cells are washed three times with 100 μL of buffer, leaving 30 μL of buffer in each well. The cell plate, screening plate, and agonist addition plates are placed on the platform in the FLIPR and the door closed. A signal test to check background fluorescence and basal fluorescence signal is performed. Laser intensity is adjusted if necessary. […]

| Compound | EC50 [nM] |
| --- | --- |
| COc1cc(Cc2cc(C(=O)N[C@H]3CCOC[C@@H]3O)nc3c(F)cccc23)cc[n+]1[O-] [Example 23, 8-Fluoro-N-[(3R,4S)-3-hydroxytetrahydro-2H-pyran-4-yl]-4-[(2-methoxy-1-oxidopyridin-4-yl)methyl]quinoline-2-carboxamide] | 411 |
| COc1ccc(Cc2cc(C(=O)N[C@H]3CCOC[C@@H]3O)nc3c(F)ccc(F)c23)cn1 [Example 24, 5,8-Difluoro-N-[(3R,4S)-3-hydroxytetrahydro-2H-pyran-4-yl]-4-[(6-methoxypyridin-3-yl)methyl]quinoline-2-carboxamide] | 33 |
